# According to patent publication US20260034091A1, “Compositions and Methods for Treating Metabolic Disorders” (The Regents of the University of California, priority 2022, published 2026):
# Test system: CDAHFD induced NAFLD progression in mice
# Assay: Dose dependent effect of TOFA in CDAHFD-induced NAFLD progression in mice
# Format: in vivo
# Details: 3 weeks
# Procedure: Six-week-old C57BL/6 male mice were fed with a L-Amino Acid Diet With 60 kcal % Fat With 0.1% Methionine and No Added Choline (Research Diets A06071302i) for three weeks before introduction of either vehicle (control) or TOFA via oral gavage for an additional three weeks (FIG. 1a). Mice were gavaged orally twice daily with varying doses of TOFA (0, 25, 50, 125, or 250 mg/kg per day). Upon study termination at six weeks, serum and liver samples were collected. Serum liver damage biomarkers, alanine transaminase (ALT) and aspartate transaminase (AST), were measured by commercially available kits (abcam105134 and abcam 105135, respectively). Hepatic triglycerides were detected from liver samples from a commercially available kit (abcam65336). Liver samples were also scored for degree of hepatic steatosis based on their hematoxylin and eosin (H&E) staining.
# [1] = TOFA 0, 25, 50, 125, or 250 mg/kg per day, oral gavage twice daily
structure (smiles),measurement,setting,value
"CCCCCCCCCCCCCCOc1ccc(C(=O)O)o1 [TOFA, 5-(Tetradecyloxy)-2-furoic acid]",degree of hepatic steatosis (H&E score),[1],decreased degree of hepatic steatosis correlating to an increased dosage of TOFA
same,liver triglyceride contents per gram of liver,[1],decreased in a dose dependent manner
same,serum ALT activity levels,[1],dose dependent decrease
same,serum AST activity levels,[1],dose dependent decrease
same,tolerability,"TOFA up to 250 mg/kg per day, oral",well tolerated
